Measurements reported in PubChem BioAssay AID248 (DTP/NCI, 2004).
Where “and” joins values, the source holds several entries; their conditions need not be identical. Equal entries are not always repeated. Toxic doses and inconclusive results are not listed. No stated cut-off is given here; in the data, active means T/C of 150% or more; inactive means T/C below 125%.

Tested on: L1210 leukemia ip in BDF1 mice, survival T/C
Assay: NCI In Vivo Anticancer Drug Screen. Data for tumor model L1210 Leukemia (intraperitoneal) in B6D2F1 (BDF1) mice
Conditions: endpoint: mean survival time, higher = longer survival
Summary of the method: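 Transplanted-tumor mice were given test agent; controls received vehicle only. Survival readings from the two groups were divided (treated over control).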

[1] = dose: 50.0 mg/kg/injection, schedule: Q04DX002 (ip), vehicle: Klucel (hydroxypropylcellulose) (HPC)
[2] = dose: 100.0 mg/kg/injection, schedule: Q04DX002 (ip), vehicle: Klucel (hydroxypropylcellulose) (HPC)
[3] = dose: 200.0 mg/kg/injection, schedule: Q04DX002 (ip), vehicle: Klucel (hydroxypropylcellulose) (HPC)
[4] = dose: 400.0 mg/kg/injection, schedule: Q04DX002 (ip), vehicle: Klucel (hydroxypropylcellulose) (HPC)
[5] = dose: 100.0 mg/kg/injection, schedule: Q01DX009 (ip), vehicle: saline with Tween-80
[6] = dose: 200.0 mg/kg/injection, schedule: Q01DX009 (ip), vehicle: saline with Tween-80
[7] = dose: 400.0 mg/kg/injection, schedule: Q01DX009 (ip), vehicle: saline with Tween-80
[8] = dose: 100.0 mg/kg/injection, schedule: Q01DX009 (ip), vehicle: Klucel (hydroxypropylcellulose) (HPC)
[9] = dose: 100.0 mg/kg/injection, schedule: Q04DX003 (ip), vehicle: Klucel (hydroxypropylcellulose) (HPC)
[10] = dose: 200.0 mg/kg/injection, schedule: Q01DX009 (ip), vehicle: Klucel (hydroxypropylcellulose) (HPC)
[11] = dose: 200.0 mg/kg/injection, schedule: Q04DX003 (ip), vehicle: Klucel (hydroxypropylcellulose) (HPC)
[12] = dose: 400.0 mg/kg/injection, schedule: Q01DX009 (ip), vehicle: Klucel (hydroxypropylcellulose) (HPC)
[13] = dose: 400.0 mg/kg/injection, schedule: Q04DX003 (ip), vehicle: Klucel (hydroxypropylcellulose) (HPC)
[14] = dose: 100.0 mg/kg/injection, schedule: Q01DX009 (ip), vehicle: saline
[15] = dose: 200.0 mg/kg/injection, schedule: Q01DX009 (ip), vehicle: saline

Measured: T/C

NN=C1CCC(=NN)CC1
inactive: dose: 25.0 mg/kg/injection, schedule: Q01DX009 (ip), vehicle: water 101 % of control | dose: 25.0 mg/kg/injection, schedule: Q04DX003 (ip), vehicle: water 109 % of control | dose: 50.0 mg/kg/injection, schedule: Q01DX009 (ip), vehicle: water 114 % of control | dose: 50.0 mg/kg/injection, schedule: Q04DX003 (ip), vehicle: water 109 % of control | dose: 100.0 mg/kg/injection, schedule: Q04DX003 (ip), vehicle: water 114 % of control and 124 % of control

O=C(/C=C/c1ccccc1)N/N=C/c1ccccc1Cl
inactive: [1] 108 % of control | [2] 100 % of control and 116 % of control | [3] 111 % of control | [4] 101 % of control and 110 % of control

COc1ccccc1OC(=O)Nc1cc([N+](=O)[O-])ccc1C
inactive: [5] 89 % of control | [6] 96 % of control | [7] 121 % of control

CC(C(O)c1ccccc1)[n+]1ccccc1 (stereo not drawn)
inactive: dose: 75.0 mg/kg/injection, schedule: Q01DX001 (ip), vehicle: saline 102 % of control

CC(CC(=O)C[N+](=O)[O-])=Nc1ccccc1
inactive: [2] 90 % of control | [3] 104 % of control | [4] 97 % of control

N#CN(Cc1ccc(Cl)cc1Cl)C(=O)OCOc1ccc(Cl)cc1
inactive: [5] 91 % of control | [6] 96 % of control | [7] 107 % of control

CC/C(C#N)=C(\C)C1CC1
inactive: dose: 9.5 mg/kg/injection, schedule: Q01DX001 (ip), vehicle: other 96 % of control | dose: 19.0 mg/kg/injection, schedule: Q01DX001 (ip), vehicle: other 96 % of control | dose: 38.0 mg/kg/injection, schedule: Q01DX001 (ip), vehicle: other 104 % of control

O=C1CCCC1C(=O)Nc1cccc2ccccc12 (stereo not drawn)
inactive: dose: 50.0 mg/kg/injection, schedule: Q01DX001 (ip), vehicle: saline 97 % of control | dose: 100.0 mg/kg/injection, schedule: Q01DX001 (ip), vehicle: saline 103 % of control | dose: 200.0 mg/kg/injection, schedule: Q01DX001 (ip), vehicle: saline 97 % of control | dose: 400.0 mg/kg/injection, schedule: Q01DX001 (ip), vehicle: saline 97 % of control

COc1cc(N(C)C)ccc1C=O
inactive: dose: 50.0 mg/kg/injection, schedule: Q01DX009 (ip), vehicle: Klucel (hydroxypropylcellulose) (HPC) 93 % of control | [8] 101 % of control | [9] 100 % of control | [10] 105 % of control | [11] 101 % of control | [12] 105 % of control | [13] 97 % of control

N#C/C(=C(/Cc1ccc(F)cc1)NP(=O)(c1ccccc1)c1ccccc1)c1ccc(F)cc1
inactive: dose: 100.0 mg/kg/injection, schedule: Q01DX001 (ip), vehicle: steriod suspending solution 101 % of control | dose: 200.0 mg/kg/injection, schedule: Q01DX001 (ip), vehicle: steriod suspending solution 90 % of control

CC(=O)OCc1ccc(Cl)cc1
inactive: [14] 96 % of control | [15] 102 % of control

CC1(C)CN(Cc2ccccc2)C(C)(C)CN1
inactive: dose: 0.19 mg/kg/injection, schedule: Q01DX009 (ip), vehicle: saline with Tween-80 93 % of control | dose: 0.39 mg/kg/injection, schedule: Q01DX009 (ip), vehicle: saline with Tween-80 100 % of control | dose: 0.78 mg/kg/injection, schedule: Q01DX009 (ip), vehicle: saline with Tween-80 106 % of control | dose: 1.56 mg/kg/injection, schedule: Q01DX009 (ip), vehicle: saline with Tween-80 101 % of control | dose: 12.5 mg/kg/injection, schedule: Q04DX003 (ip), vehicle: saline with Tween-80 92 % of control | dose: 25.0 mg/kg/injection, schedule: Q04DX003 (ip), vehicle: saline with Tween-80 103 % of control

O=C(O)CCSc1nc2ccccc2s1
inactive: dose: 75.0 mg/kg/injection, schedule: Q01DX009 (ip), vehicle: Klucel (hydroxypropylcellulose) (HPC) 101 % of control | dose: 150.0 mg/kg/injection, schedule: Q01DX009 (ip), vehicle: Klucel (hydroxypropylcellulose) (HPC) 88 % of control | dose: 300.0 mg/kg/injection, schedule: Q01DX009 (ip), vehicle: Klucel (hydroxypropylcellulose) (HPC) 95 % of control | [13] 94 % of control

CCc1cccc2ccccc12
inactive: dose: 50.0 mg/kg/injection, schedule: Q04DX003 (ip), vehicle: Klucel (hydroxypropylcellulose) (HPC) 100 % of control | [8] 90 % of control | [9] 98 % of control | [10] 92 % of control | [11] 107 % of control | [12] 96 % of control | [13] 96 % of control

C=C(C)CCCC(C)CC#N (stereo not drawn)
inactive: dose: 100.0 mg/kg/injection, schedule: Q01DX001 (ip), vehicle: carboxymethylcellulose (CMC) 117 % of control | dose: 200.0 mg/kg/injection, schedule: Q01DX001 (ip), vehicle: carboxymethylcellulose (CMC) 100 % of control | dose: 400.0 mg/kg/injection, schedule: Q01DX001 (ip), vehicle: carboxymethylcellulose (CMC) 96 % of control

O=C(C=C(C(F)(F)F)C(F)(F)F)c1ccc(-c2ccccc2)cc1
inactive: dose: 25.0 mg/kg/injection, schedule: Q01DX009 (ip), vehicle: saline with Tween-80 98 % of control | dose: 50.0 mg/kg/injection, schedule: Q01DX009 (ip), vehicle: saline with Tween-80 98 % of control | dose: 50.0 mg/kg/injection, schedule: Q04DX003 (ip), vehicle: saline with Tween-80 92 % of control | dose: 100.0 mg/kg/injection, schedule: Q04DX003 (ip), vehicle: saline with Tween-80 87 % of control | dose: 200.0 mg/kg/injection, schedule: Q04DX003 (ip), vehicle: saline with Tween-80 86 % of control

CCC1(c2ccccc2)CN(C)C1=O (stereo not drawn)
inactive: dose: 25.0 mg/kg/injection, schedule: Q01DX009 (ip), vehicle: saline 103 % of control | dose: 25.0 mg/kg/injection, schedule: Q04DX003 (ip), vehicle: saline 92 % of control | dose: 50.0 mg/kg/injection, schedule: Q01DX009 (ip), vehicle: saline 106 % of control | dose: 50.0 mg/kg/injection, schedule: Q04DX003 (ip), vehicle: saline 97 % of control | [14] 105 % of control | dose: 100.0 mg/kg/injection, schedule: Q04DX003 (ip), vehicle: saline 97 % of control | [15] 102 % of control | dose: 200.0 mg/kg/injection, schedule: Q04DX003 (ip), vehicle: saline 95 % of control | dose: 400.0 mg/kg/injection, schedule: Q01DX009 (ip), vehicle: saline 100 % of control | dose: 400.0 mg/kg/injection, schedule: Q04DX003 (ip), vehicle: saline 92 % of control

CC(C)(C)Nc1ccc(C#N)cc1
inactive: dose: 12.5 mg/kg/injection, schedule: Q04DX002 (ip), vehicle: Klucel (hydroxypropylcellulose) (HPC) 97 % of control | dose: 25.0 mg/kg/injection, schedule: Q04DX002 (ip), vehicle: Klucel (hydroxypropylcellulose) (HPC) 94 % of control | [1] 87 % of control

CCCCCCCCCCCCCCCC(=O)CCCCCCCCCCCCCCC
inactive: dose: 100.0 mg/kg/injection, schedule: Q01DX001 (ip), vehicle: other 94 % of control | dose: 200.0 mg/kg/injection, schedule: Q01DX001 (ip), vehicle: other 100 % of control | dose: 400.0 mg/kg/injection, schedule: Q01DX001 (ip), vehicle: other 97 % of control
